Entries after “also recorded” stand apart in the source; their conditions may differ. Where two headings read alike, the source gives them in different places.
Assays:
[1] = target: T1, GST-Cx43 CT QQ/KK (Rattus norvegicus, UniProt P08050, K345Q/K346Q); experiment: EDC cross-linking, Cx43 CT QQ/KK mutant substrate; assay type: binding; conditions: 5, 10 and 25 μM
T1 construct: pGEX-6-P2 Cx43 CT amino acids 255-382; made in house; host or cells: E. coli BL21
Description: To characterize the interaction between the Cx43 CT substrate and peptides, the in vitro kinase assay was performed as above with modification and the constituents then subjected to a cross-linking reaction. The assay buffer used was 20 mM 3-(N-morpholino) propanesulfonic acid (MOPS), pH 7.2. All other reagents present in the kinase reaction were maintained as described above. The reaction was allowed to proceed at 37° C. for 15 minutes. Afterwards, the carbodiimide crosslinker 1-Ethyl-3-(3-dimethylaminopropyl) carbodiimide HCl (EDC) (Thermo, 22980) was added to each solution for a final concentration of 20 mM. The solution was allowed to cross-link for one hour at room temperature. The reaction was stopped by the addition of 4×LDS loading buffer, boiled for 5 minutes and subsequently separated by PAGE. The resulting gel was stained in Coomassie brilliant blue (Sigma, B0770) for two hours and destained in a solution of 4% methanol 7% acetic acid overnight. Gel bands were subsequently excised for mass spectrometric analysis. For the direct interaction between protein and peptides, PBS, pH 7.5 was used as the coupling buffer. The protein (50 μg/ml) and peptide (25 μM) were allowed to react at room temperature for one hour before EDAC was added to the reaction mixture. The reaction was Western blotted for Cx43, GST or NeutroAvidin.

[2] = tested on: 4 mm long incisional skin injury; conditions: 60 μM in 20% pluronic gel, cited from earlier work
[3] = tested on: 8 mm wide circular excisional skin injuries; conditions: 100 μM in 30% pluronic gel; 10-14 day time course; cited from earlier work
[4] = tested on: 8 mm diameter round wound; conditions: cited from earlier work
[5] = aqueous solutions; cited from earlier work
[6] = tested on: ARPE19 cell (immortalized human RPE cells) monolayers; conditions: pre-treatment, cited from earlier work
[7] = tested on: U87 MG glioblastoma cells; conditions: cited from earlier work
[8] = tested on: C6 glioma cell line; conditions: cited from earlier work
[9] = tested on: porcine kidney; conditions: 100 μm in Belzer's solution, on ice 24 h; cited from earlier work
[10] = tested on: Human umbilical vein endothelial cells (HUVECs); conditions: cited from earlier work
[11] = tested on: heart allograft; conditions: 100 μM in UW solution, cited from earlier work
[12] = 0.05% Brij-78, corneal application, cited from earlier work; for peptide in aqueous humor / peptide in vitreous humor: 20 and 40 minutes
[13] = tested on: silicone implant; experiment: Silicone implants coated with JM2; assay type: in vivo, rat; conditions: 180 micomolar in 25% pluronic gel
Description: 25% pluronic F127 gel (Sigma-Aldrich, St. Louis, MO 63103), which is liquid at 4° C., but gels at 37° C., was used as a delivery vehicle for JM2 peptide. Pluronic gel has mild surfactant properties that aid in peptide dispersion. The JM2 peptide was reconstituted in IX PBS containing the 25% pluronic gel to a final concentration of 180 micomolar.
Animals were anesthetized with 2.75% isoflurane balance oxygen gas. After achievement of general anesthesia, the surgical site consisting of the animal's upper back was prepped by clipping fur down to skin and applying betadine scrub solution in triplicate. Sterile towels were draped to define the surgical field. PWAS Silicone sensors (5 mm diameter) were autoclave sterilized and warmed to 37° C. prior to implantation. For the treatment group, implants were dipped twice in JM2 pluronic solution prior to implantation. For the vehicle control group, the implants were dipped in saline only. This coating procedure produced an even coating of the implant. A muscle pocket was created under the latissimus dorsi muscle and implants were inserted. 50 μL of the corresponding solution was also injected into the muscle pocket prior to closure. The muscles were reapproximated with 4-0 Prolene (Ethicon Inc, Somerville, NJ 08876) and the skin closed with 4-0 Prolene and skin staples. […]

[14] = tested on: cancer stem cells CSCs; conditions: CSCs derived from patient tumors; cited from earlier work
[15] = tested on: Cx43-Hela cells; conditions: cited from earlier work

T1 sequence (P08050 255-382 K345Q/K346Q): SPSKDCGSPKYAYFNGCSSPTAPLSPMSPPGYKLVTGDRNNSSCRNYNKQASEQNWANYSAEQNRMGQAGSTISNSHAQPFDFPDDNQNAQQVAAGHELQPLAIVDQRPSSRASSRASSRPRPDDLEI

In the case of RQPKIWFPNRRKPWKKRPRPDDLEI [alpha CT1], the “EDC cross-linking to Cx43 CT QQ/KK mutant substrate” value [1] is given as “no evidence of cross-linking”, the “appearance of incisional injury” value ([2]; at 7 days) is given as “smoother and less scarred appearance” and the “appearance of incisional injury” value ([2]; by 48 hours) is given as “significantly more closed, less inflamed, less swollen”. The “healing of excisional injuries” value [3] was “closed faster, were less inflamed in appearance, healed faster and scarred less”, the scar size ([4]; 150 μM peptide, collagen gel, 30 days) was “significantly (p<0.05) smaller than the controls” and the wound closure rate ([4]; rat, in vivo) was “consistent significantly faster closure rates than the other 4 wounds”. For the same sequence, the “period of slow release of detectable levels of peptide” value [5] was “at least 7 days”, the “VEGF-induced deterioration of TER” value [6] was “prevent VEGF-induced deterioration of TER” and the “VEGF-induced deterioration of TER” value ([6]; listed as ACTI) was “blocked by pre-treating the cells with the ACTI peptide”. The aggregation [7] was “higher degree of aggregation”, the adhesive properties [8] was “did not change in response to peptide treatment” and the morphology [8] was “altered morphology”. The Cx43 staining [9] was “Punctate Cx43 staining in the membrane (gap junctions) were preserved”, the nitrotyrosine staining [9] was “no changes in nitrotyrosine staining in the presence of ACT1 peptide” and the “protection from oxidative stress” value ([10]; H2O2) was “significantly protects endothelial cells from H2O2”. The cellular injury ([10]; UW solution containing 100 μM) was “significantly reduced cellular injury as compared to untreated controls”, the “IL-8 secretion and MHC II expression” value ([10]; UW solution supplemented with peptide) was “significant reduction in IL-8 secretion and MHC Class II expression” and the “TEER and IL-8 secretion post reperfusion” value ([10]; UW+ACT1 solution) was “improved TEER and reduced IL-8 secretion”. The “Evan's Blue sequestration into the transplanted heart” value ([11]; 6 h at 4° C., 30 mins post reperfusion) was “significantly reduces Evan's Blue sequestration into the transplanted heart”, the “graft injury, serum cardiac troponin I, neutrophils” value ([11]; 6 hrs at 4° C.) was “significantly reduced cardiac injury, reduced serum cardiac troponin I and significantly reduced neutrophils” and the “peptide in aqueous humor” value [12] was “detectable level of ACT1 in the internal fluids of the anterior chamber”. The “peptide in vitreous humor” value [12] was “Lower levels of ACT1 could also be detected”, the “peptide in aqueous humor” value ([12]; listed as ACTI) was “detectable level of ACTI in the internal fluids of the anterior chamber” and the “peptide in vitreous humor” value ([12]; listed as ACTI) was “Lower levels of peptide could also be detected”. The “peptide in retinal pigment epithelial layer” value [12] was “ACT1 was detectable in the retinal pigment epithelial layer” and the “peptide in retinal pigment epithelial layer” value ([12]; listed as ACTI) was “peptide was detectable in the retinal pigment epithelial layer”.
For VFFKGVKDRVKGRSD [JM2], the “healing, capsule formation, scarring and fibrosis” value [13] is given as “improved healing and decreased capsule formation, scarring and fibrosis”, the “inflammation and skeletal muscle necrosis” value [13] is given as “decreased inflammation and reduced skeletal muscle necrosis” and the CSC survival [14] is given as “decreases CSC survival in vitro and in vivo”. The “Cx43 GJ labeling” value ([15]; 10 μM for 2, 6, and 24 hrs) was “displayed little GJ labeling; also recorded: GJ labeling began to return at 6 hrs, and appeared normal after 24 hrs” and the microtubule organization ([15]; 2 hr) was “disruption of microtubule organization”.
